The record followed here is ChEMBL document CHEMBL1255445, “Evaluation of nucleoside hydrolase inhibitors for treatment of African trypanosomiasis” (Antimicrob Agents Chemother, 2010).

As usually defined, the Ki is a dissociation constant, usually derived from enzyme kinetics or from competition with a known ligand. For orientation: IC50 means the concentration that inhibits the measured activity by half.

Active and inactive are the calls of the source. How the calls were made is not given here. Some results are limits rather than exact numbers.

The nature of assay [1]: Inhibition of Trypanosoma vivax Inosine-adenosine-guanosine-nucleoside hydrolase.
Assay [2] can be described thus: Inhibition of human purine nucleoside phosphorylase.
The next assay relates to Plasmodium falciparum. In words: Antiparasitic activity against chloroquine-sensitive Plasmodium falciparum Ghana assessed as reduction in parasite growth after 3 days by fluorimetry. The assay is classed as functional, organism-based.
Assay [3] concerns Trypanosoma brucei brucei. Put plainly: Antitrypanosomal activity against suramin sensitive Trypanosoma brucei brucei Lister 427 assessed as reduction in parasite growth after 3 days by fluorometrically. The following applies: Lister 427, 72 h. The format is functional, organism-based.
A further assay deals with Leishmania infantum. Put plainly: Antileishmanial activity against Leishmania infantum MHOM/MA/67/ITMAP263 intracellular amastigotes assessed as reduction in parasite growth after 3 days by fluorometrically. The assay is classed as functional, organism-based.
The next assay relates to Trypanosoma cruzi. Put plainly: Antitrypanosomal activity against Trypanosoma cruzi Tulahuen CL2 s-galactosidase strain assessed as reduction in parasite growth after 3 days by fluorometrically. The format is functional, organism-based.
A short description of assay [4]: Inhibition of Trypanosoma brucei brucei inosine-adenosine-guanosine nucleoside hydrolase (IAG-NH).
Assay [5] in a line: Inhibition of Trypanosoma brucei brucei Lister 427 Nucleoside transporter P1 by scintillation counting.
Assay [6] is described as follows: Inhibition of Trypanosoma brucei brucei Inosine guanosine nucleoside hydrolase.
Assay [7] in a line: Cytotoxicity against human MRC5 SV2 cells after 48 hrs. The format is cell-based. The following applies: MRC5, 48 h.
Assay [8] is described as follows: Inhibition of Trypanosoma brucei brucei Lister 427 Nucleoside/nucleobase transporter P2 transporter by scintillation counting.

In the case of `OC[C@@H]1[C@@H](O)[C@@H](O)CN1Cc1cccc2nccnc12`, the values for the Ki in [1] and in assay [2] were 0.14 µM and > 1000 µM, respectively. For the same compound, the outcome in the assay on Plasmodium falciparum, with Leishmania infantum and with Trypanosoma cruzi was inactive. Moreover, the IC50 in assay [3] was > 64 µM.
With `Nc1nc2c(CN3C[C@H](O)[C@H](O)[C@H]3CO)cccc2s1`, the Ki in [4] was 0.56 µM; in assay [1], 0.04 µM; in assay [5], 810 µM; in [2] it was > 1000 µM; in assay [6], 14 µM. Moreover, the result with Plasmodium falciparum, with Leishmania infantum and in the assay on Trypanosoma cruzi was inactive. Further, the IC50 in [3] and in [7] was > 64 µM throughout.
Regarding `O=c1[nH]cnc2c([C@@H]3N[C@H](CO)[C@@H](O)[C@H]3O)c[nH]c12` [FORODESINE], the Ki in assay [4] was 0.024 µM; in assay [1] it was 0.0062 µM; in assay [6], 0.009 µM. For the same compound, the outcome in the assay on Plasmodium falciparum, in the assay with Leishmania infantum and with Trypanosoma cruzi was inactive. Besides, the IC50 in assay [3] and in assay [7] was > 64 µM throughout.
On to `COc1ccnc2c(CN3C[C@H](O)[C@H](O)[C@H]3CO)cccc12`, for which the inhibitory constant (Ki) in assay [1] is 0.029 µM; in [2] it was > 1000 µM. Moreover, the outcome in the assay on Plasmodium falciparum, with Leishmania infantum and in the assay with Trypanosoma cruzi was inactive. In addition, the IC50 in [3] and in [7] was > 64 µM in each case.
For the compound `OC[C@@H]1[C@@H](O)[C@@H](O)CN1Cc1cccc2c(Cl)ccnc12`, the Ki in [1] was 0.014 µM; in assay [2], > 1000 µM. Also, the result in the assay with Plasmodium falciparum, in the assay with Leishmania infantum and in the assay with Trypanosoma cruzi was inactive. The IC50 in assay [3] is 25 µM.
For the compound `OC[C@@H]1[C@@H](O)[C@@H](O)CN1Cc1cccc2cncnc12`, the Ki is 0.058 µM in assay [1] and > 1000 µM in assay [2]. Besides, the outcome with Plasmodium falciparum, with Leishmania infantum and in the assay with Trypanosoma cruzi was inactive. For the same compound, the IC50 in [3] and in assay [7] was > 64 µM throughout.
As to `O=c1[nH]cnc2c(CN3C[C@H](O)[C@H](O)[C@H]3CO)csc12`, the Ki in assay [4] was found to be 0.19 µM; in assay [1] it was 0.02 µM; in assay [5], 300 µM; in assay [2], 77.6 µM; in assay [6], 120 µM. The outcome in the assay on Plasmodium falciparum, in the assay with Leishmania infantum and with Trypanosoma cruzi was inactive. Moreover, the IC50 in assay [3] was > 34 µM; in [7], > 64 µM.
For the compound `OC[C@@H]1[C@@H](O)[C@@H](O)CN1Cc1c[nH]c2c(O)ncnc12`, the Ki is 0.03 µM in assay [4]; 0.0044 µM in assay [1]; > 1000 µM in [5]; 0.0058 µM in assay [2]; 138 µM in assay [6]. In addition, the outcome with Plasmodium falciparum, with Leishmania infantum and with Trypanosoma cruzi was inactive. Moreover, the IC50 in [3] and in assay [7] was > 64 µM in each case.
On to `Nc1ncnc2c(CN3C[C@H](O)[C@H](O)[C@H]3CO)csc12`, for which the inhibitory constant (Ki) in [4] was determined as 0.056 µM; in assay [8], 125 µM; in [1], 0.019 µM; in assay [5], 540 µM; in [2], 1000 µM; in assay [6] it was 31 µM. Also, the result with Plasmodium falciparum, with Leishmania infantum and in the assay with Trypanosoma cruzi was inactive. Moreover, the IC50 in [3] and in [7] was > 64 µM throughout.
`O=c1[nH]cnc2c(CN3C[C@H](O)[C@H](O)[C@H]3CO)cccc12`: the Ki was 0.11 µM in [1] and > 1000 µM in assay [2]. Moreover, the result in the assay with Plasmodium falciparum, in the assay with Leishmania infantum and in the assay with Trypanosoma cruzi was inactive. Further, in assay [3], the IC50 was > 64 µM.
In the case of `Nc1ncnc2c(C3N[C@H](CO)[C@@H](O)[C@H]3O)c[nH]c12` (stereo not given in full) [IMMUCILLIN A], the Ki in assay [4] is 0.0009 µM; in assay [1], 0.0062 µM; in assay [2], > 10 µM; in assay [6], 0.0044 µM. The outcome in the assay with Plasmodium falciparum, in the assay with Leishmania infantum and in the assay with Trypanosoma cruzi was inactive. Also, the concentration for half-maximal inhibition (IC50) in assay [3] and in assay [7] was > 64 µM throughout.
Take `Nc1ccnc2c(CN3C[C@H](O)[C@H](O)[C@H]3CO)cccc12`: the Ki was 0.05 µM in assay [1] and > 1000 µM in assay [2]. Also, the result in the assay with Plasmodium falciparum, with Leishmania infantum and in the assay on Trypanosoma cruzi was inactive. In addition, the IC50 in assay [3] was > 64 µM.
As for `COc1cccc2c(CN3C[C@H](O)[C@H](O)[C@H]3CO)c[nH]c12`, the values for the inhibition constant Ki in assay [1] and in assay [2] were 2.3 µM and > 400 µM, respectively. The result in the assay with Plasmodium falciparum, in the assay on Leishmania infantum and in the assay on Trypanosoma cruzi was inactive. Moreover, the IC50 in assay [3] is > 64 µM.
With `OC[C@@H]1[C@@H](O)[C@@H](O)CN1Cc1cccc2cccnc12`, the Ki was 0.446 µM in assay [4], 0.011 µM in [1], > 1000 µM in [2] and 11 µM in assay [6]. Moreover, the result with Plasmodium falciparum, in the assay with Leishmania infantum and in the assay with Trypanosoma cruzi was inactive. Moreover, the IC50 in assay [3] and in assay [7] was > 64 µM in each case.
Regarding `OC[C@@H]1[C@@H](O)[C@@H](O)CN1Cc1c[nH]c2ccccc12`, the Ki in assay [1] was 12 µM; in assay [2], > 800 µM. The outcome with Plasmodium falciparum, with Leishmania infantum and in the assay with Trypanosoma cruzi was inactive. The IC50 in assay [3] is > 64 µM.
Take `O=c1cc[nH]c2c(CN3C[C@H](O)[C@H](O)[C@H]3CO)cccc12`: the Ki in assay [1] is 13.1 µM; in [2], > 500 µM. Besides, the result with Plasmodium falciparum, with Leishmania infantum and in the assay with Trypanosoma cruzi was inactive. Besides, the IC50 in assay [3] is > 64 µM.
`OC[C@@H]1[C@@H](O)[C@@H](O)CN1Cc1csc2cncnc12`: the Ki in assay [1] is 0.042 µM; in assay [2], > 1000 µM. Besides, the result with Plasmodium falciparum, in the assay on Leishmania infantum and in the assay with Trypanosoma cruzi was inactive. In addition, the IC50 in assay [3] is > 64 µM.
Consider `Nc1ncnc2c(CN3C[C@H](O)[C@H](O)[C@H]3CO)cccc12`, for which the Ki in assay [1] is 0.015 µM; in assay [2], > 1000 µM. The result with Plasmodium falciparum, with Leishmania infantum and in the assay with Trypanosoma cruzi was inactive. Moreover, the IC50 in assay [3] was > 64 µM.
The compound `OC[C@@H]1[C@@H](O)[C@@H](O)CN1CCc1c[nH]c2ccccc12` yielded a Ki in assay [1] of 9.5 µM. The result with Plasmodium falciparum, with Leishmania infantum and in the assay on Trypanosoma cruzi was inactive. In addition, the IC50 in [3] came to 31 µM.
